{"source": "patent US20250115665A1", "about": "“BISPECIFIC ANTIBODY AGAINST CD3 AND CD20 IN COMBINATION THERAPY FOR TREATING DIFFUSE LARGE B-CELL LYMPHOMA” (GENMAB A/S, priority 2022, published 2025)", "key": {"T cells": {"tested_on": "T cells", "assay": "T-cell activation with immobilized anti-CD3 in the presence or absence of lenalidomide", "assay_type": "cell-based", "settings": "lenalidomide 5 or 50 μM, CD3 crosslinking by immobilized anti-CD3, 3 days; compared to no lenalidomide", "protocol": "T cells were pre-incubated with assay medium or lenalidomide in the absence or presence of CD3 crosslinking by immobilized anti-CD3 for 3 days (as indicated on the x-axes), after which upregulation of CD69, CD25, PD-1 and LAMP-1 on CD4+ and CD8+ T cells was determined by flow cytometry. Data shown are geomean fluorescence intensities (FI) for four donors (each circle represents one condition for one donor). Pre-incubation conditions are shown on the x-axis.\n(§1) Briefly, T cells were activated with immobilized anti-CD3 in the presence (5 or 50 μM) or absence of lenalidomide for 3 days. […] T cells that were activated in the presence or absence of lenalidomide were subsequently tested for their cytotoxic capacity in response to epcoritamab."}, "[1]": {"tested_on": "CD20-expressing Daudi cells", "assay": "DuoBody-CD3xCD20-induced T-cell-mediated cytotoxicity assay with lenalidomide pre-treated T cells", "assay_type": "cell-based", "settings": "T cells pre-treated with lenalidomide and anti-CD3; Daudi target cells, E:T ratio 2:1", "protocol": "T cells were incubated with (5 or 50 μM) or without lenalidomide in the absence or presence of immobilized anti-CD3 for 3 days. […] Data shown are average percentages cytotoxicity±SD of duplicates, normalized to medium control (no antibody, no lenalidomide).\nas §1"}, "[2]": {"tested_on": "highly refractory large B-cell lymphoma", "settings": "monotherapy, n=157; cited from earlier work"}}}
{"compound": "Nc1cccc2c1CN(C1CCC(=O)NC1=O)C2=O", "note": "(stereo not shown) [lenalidomide, 3-(4-Amino-1-oxo-1,3-dihydro-2H-isoindol-2-yl) piperidine-2,6-dione]", "values": [{"measurement": "T-cell activation (upregulation of CD69, CD25 on the T cell surface, release of granzyme B and IFNγ)", "setting": "T cells", "value": "increased T-cell activation"}]}
{"compound": "epcoritamab: IgG1 bispecific CD3×CD20 antibody, heavy/light chains SEQ ID NOs: 24, 25 and 26, 27; CAS 2134641-34-0", "values": [{"measurement": "cytotoxic activity at lower antibody concentrations", "setting": "[1]", "value": "higher activity at lower epcoritamab concentrations"}, {"measurement": "maximum percent cytotoxicity", "setting": "[1]", "value": "Higher maximum percent cytotoxicity"}, {"measurement": "complete response (CR) rate", "setting": "[2]", "value": 39, "unit": "%"}, {"measurement": "median duration of response (DOR)", "setting": "[2]", "value": 12, "unit": "months"}, {"measurement": "overall response rate (ORR)", "setting": "[2]", "value": 63, "unit": "%"}, {"measurement": "safety profile", "setting": "[2]", "value": "manageable safety profile"}]}
